Key:
Nluc-FZD6 = molecular target: T1, Nluc-FZD6 (Homo sapiens, UniProt O60353); assay: BRET-based BODIPY-cyclopamine competition binding at Nluc-FZD6 in live HEK293 cells
T1 construct: expressed in transfected cells; host or cells: ΔSMO HEK293A or ΔFZD1–10 HEK293T cells (screen); ΔFZD1–10 HEK293T cells (concentration–response curves)
T1 sequence (O60353 19-706): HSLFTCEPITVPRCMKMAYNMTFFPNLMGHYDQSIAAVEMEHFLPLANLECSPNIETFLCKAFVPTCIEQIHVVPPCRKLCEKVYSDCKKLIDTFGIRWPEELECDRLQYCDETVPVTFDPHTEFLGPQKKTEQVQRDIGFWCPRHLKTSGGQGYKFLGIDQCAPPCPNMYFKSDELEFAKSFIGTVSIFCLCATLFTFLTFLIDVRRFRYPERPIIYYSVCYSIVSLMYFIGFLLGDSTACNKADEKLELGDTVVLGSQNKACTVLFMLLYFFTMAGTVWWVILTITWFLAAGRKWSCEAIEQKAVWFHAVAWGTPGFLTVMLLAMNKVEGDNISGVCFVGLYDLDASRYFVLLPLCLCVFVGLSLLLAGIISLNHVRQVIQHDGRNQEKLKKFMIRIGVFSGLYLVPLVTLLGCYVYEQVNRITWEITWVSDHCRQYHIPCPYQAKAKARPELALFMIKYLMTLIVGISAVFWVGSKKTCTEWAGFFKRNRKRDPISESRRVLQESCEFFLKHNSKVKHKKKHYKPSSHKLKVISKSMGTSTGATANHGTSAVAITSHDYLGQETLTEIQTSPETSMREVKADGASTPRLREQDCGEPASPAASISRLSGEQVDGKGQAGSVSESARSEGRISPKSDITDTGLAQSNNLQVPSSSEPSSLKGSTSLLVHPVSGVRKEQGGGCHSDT
Protocol: After 24 h, cells were washed once with Hanks' balanced salt solution (HBSS), followed by the addition of 80 μl of HBSS. Next, 10 μl of the competitive ligand, that is, the tested SAG1.3 derivative (either in different concentrations for the concentration–response curves or at a final concentration of 10 μM for the first screens) and 10 μl of the fluorescent tracer BODIPY–cyclopamine (final concentration: 300 nM for the first screens, 200 nM for the concentration–response experiments) were added. All serial dilutions were prepared in HBSS. The cells were incubated for 90 min at 37 °C without additional CO2, after which 10 μl of luciferase substrate diluted in HBSS (furimazine; Promega, N1572, final dilution: 1:1000 for first screening) and coelenterazine h (Biosynth; final concentration: 5 μM for concentration–response experiments) were added to the cells. Following a 10 min incubation period in the dark, the measurement was started on a BMG Labtech ClarioStar or TECAN Spark multimode microplate reader, prewarmed to 37 °C. Nluc bioluminescence was detected between 460 and 490 nm (ClarioStar) or 460 and 500 nm (TECAN Spark). The emission of the fluorescent tracer was detected between 520 and 550 nm (ClarioStar) or between 520 and 560 nm (TECAN Spark).
For each binding experiment, the measurement was repeated five times and averaged for the analysis. ΔBRET values were obtained by subtracting the BRET ratio obtained in wells containing BODIPY–cyclopamine but no competitive ligand (100% value). The BRET values for full displacement were defined using “donor-only” control wells, which contained Nluc-FZDx-transfected cells but no BODIPY–cyclopamine.
For the full concentration–response BRET binding curves in Figure 2, BRET values were normalized (separately for each experiment) to control wells containing BODIPY–cyclopamine but no competitive ligand (100% value) and “donor-only” wells (0% value, described previously). […] Obtained IC50 values were transformed to pIC50 values, which were subsequently averaged between experiments. Displacement curves showing the non-normalized data (ΔBRET values generated as described previously) can be found in Fig. S2.
Shown are mean values and SDs from N independent experiments (N = 2-8) performed in duplicate.
Shown are mean values ± SEM from N independent experiments performed in triplicate.

HiBiT-FZD5 = molecular target: T2, HiBiT-FZD5 (Homo sapiens, UniProt Q13467); assay: NanoBiT cell surface expression assay, HiBiT-FZD5; format: cell-based; details: 10 μM, overnight exposure
T2 construct: expressed in transfected cells; host or cells: HEK293A cells
T2 sequence (Q13467 27-585): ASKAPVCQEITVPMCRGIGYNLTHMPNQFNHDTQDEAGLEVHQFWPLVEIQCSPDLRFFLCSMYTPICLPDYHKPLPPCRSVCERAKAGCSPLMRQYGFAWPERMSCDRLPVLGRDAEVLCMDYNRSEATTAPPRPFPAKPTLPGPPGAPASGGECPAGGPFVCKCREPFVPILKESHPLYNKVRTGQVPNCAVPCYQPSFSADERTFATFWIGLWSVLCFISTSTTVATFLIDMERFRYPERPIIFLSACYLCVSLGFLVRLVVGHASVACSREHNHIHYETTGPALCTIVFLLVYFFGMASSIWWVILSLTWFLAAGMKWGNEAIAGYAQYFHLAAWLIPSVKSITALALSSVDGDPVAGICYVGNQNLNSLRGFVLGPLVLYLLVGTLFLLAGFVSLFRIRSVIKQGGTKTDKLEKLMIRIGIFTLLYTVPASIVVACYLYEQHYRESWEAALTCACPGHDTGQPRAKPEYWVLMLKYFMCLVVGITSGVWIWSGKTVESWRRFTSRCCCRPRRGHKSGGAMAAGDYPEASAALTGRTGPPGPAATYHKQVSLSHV
Protocol: Subsequently, 10 μl of either compound 11 or 26 (DD436001) was added at a final concentration of 10 μM. DMSO was added separately as a control. One day after compound or DMSO addition, cells were washed once with HBSS, and 90 μl of HBSS was added to the wells. To measure cell surface expression, a 1:20 dilution of furimazine live cell substrate and 1:20 LgBiT mix (final dilution = 1:200) were prepared in HBSS and 10 μl was added. The plate was incubated for 30 min to allow for HiBiT–LgBiT complementation, and then luminescence was measured on a TECAN Spark multimode microplate reader between 460 and 500 nm (integration time: 200 ms).
Figure S4. BRET time-course of compound 11 at the FZD5-DEP-Clamp in agonist mode and HiBiT-FZD5/6 surface expression upon compound exposure. (A) Shown is the BRET time-course recorded upon addition of 30 µM compound 11 or vehicle (DMSO). Experiments were performed in HEK293A cells stably expressing the FZD5-DEP-Clamp sensor. […] The timepoint of ligand addition is indicated by a black arrow. (B, C) Impact of compound 11 on FZD cell surface expression. The cell surface pool of transiently-transfected HiBiT-FZD5 (B) and HiBiT-FZD6 (C) was assessed by addition of recombinant LgBiT in combination with detection of NanoBiT luminescence. […]

CC(=O)Nc1cccc(C(=O)NC2CCC(N(Cc3cccc(-c4ccncc4)c3)C(=O)c3sc4ccccc4c3Cl)CC2)c1 (centres unmarked) [compound 11, N-((1r,4r)-4-(3-Acetamidobenzamido)cyclohexyl)-3-chloro-N-(3-(pyridin-4-yl)benzyl)benzo[b]thiophene-2-carboxamide]
Displacement @ 10 µM compound (Nluc-FZD6) ΔBRET (Nluc-FZD6; 10 µM compound, BODIPY-cyclopamine 300 nM, BMG Labtech ClarioStar reader (complete tracer displacement: net BRET = -0.02736)): -0.0228
Displacement % (Nluc-FZD6; 10 µM compound, BODIPY-cyclopamine 300 nM, ClarioStar reader): 83.2%
IC50 (Nluc-FZD6; BODIPY-cyclopamine 200 nM, ΔFZD1-10 HEK293T cells, read-out: pIC50 (Nluc-FZD6) mean ± SEM (converted)): 1020 nM
IC50 values of competition binding within the FZD family (in words) (Nluc-FZD6; Nluc-FZD6 and other FZD paralogs): three-digit nanomolar to single-digit micromolar range
Effect on surface levels of HiBiT-FZD5 (HiBiT-FZD5): had no effect

Reference: paper PMC12605013, “SAG1.3-derived Frizzled-targeting small-molecule compounds” (The Journal of Biological Chemistry, 2025)
